How the values were obtained:
Type in all cases: cell-based
[1] = target: T1, human cloned CHRM5 receptor (M5_CHO) (Homo sapiens, UniProt P08912); experiment: CHRM5 Ca++ Flux Assay (agonist mode, FDSS 7000EX); settings: for Emax: Percent Activity measured to EC100 of Carbachol, read-out: M5 FDSS PA; for EC50: agonist mode, geometric mean if tested more than once, read-out: M5 FDSS EC50
T1 construct: expressed in transfected cells; host or cells: CHO (M5_CHO)
T1 sequence (P08912 1-532): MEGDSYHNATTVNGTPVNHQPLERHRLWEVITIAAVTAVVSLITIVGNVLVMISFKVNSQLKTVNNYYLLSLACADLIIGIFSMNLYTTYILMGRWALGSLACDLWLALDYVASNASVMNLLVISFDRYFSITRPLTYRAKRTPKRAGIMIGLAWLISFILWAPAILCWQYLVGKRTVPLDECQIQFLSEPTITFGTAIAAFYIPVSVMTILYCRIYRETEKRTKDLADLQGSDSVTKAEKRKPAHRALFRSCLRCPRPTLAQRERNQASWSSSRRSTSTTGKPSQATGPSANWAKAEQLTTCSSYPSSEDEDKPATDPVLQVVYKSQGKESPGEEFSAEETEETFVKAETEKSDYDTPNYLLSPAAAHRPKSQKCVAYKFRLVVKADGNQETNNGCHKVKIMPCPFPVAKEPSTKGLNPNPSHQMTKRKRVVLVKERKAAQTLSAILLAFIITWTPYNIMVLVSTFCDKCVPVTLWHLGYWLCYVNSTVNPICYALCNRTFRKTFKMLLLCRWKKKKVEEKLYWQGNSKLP
In short: (§1)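 Agonist responses are measured as calcium mobilization in CHO-K1 cells expressing human M3 or M5, tested over an 11-point dose range in triplicate. Percent activity is normalised to carbachol at EC100.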

[2] = target: T2, human cloned CHRM2 receptor (M2_CHO cells) (Homo sapiens, UniProt P08172); experiment: CHRM2 Ca++ Flux Assay (agonist mode, FDSS 7000EX); settings: Percent Activity measured to EC100 of Carbachol; read-out: M2 FDSS PA
T2 construct: expressed in transfected cells; host or cells: CHO-K1
T2 sequence (P08172 1-466): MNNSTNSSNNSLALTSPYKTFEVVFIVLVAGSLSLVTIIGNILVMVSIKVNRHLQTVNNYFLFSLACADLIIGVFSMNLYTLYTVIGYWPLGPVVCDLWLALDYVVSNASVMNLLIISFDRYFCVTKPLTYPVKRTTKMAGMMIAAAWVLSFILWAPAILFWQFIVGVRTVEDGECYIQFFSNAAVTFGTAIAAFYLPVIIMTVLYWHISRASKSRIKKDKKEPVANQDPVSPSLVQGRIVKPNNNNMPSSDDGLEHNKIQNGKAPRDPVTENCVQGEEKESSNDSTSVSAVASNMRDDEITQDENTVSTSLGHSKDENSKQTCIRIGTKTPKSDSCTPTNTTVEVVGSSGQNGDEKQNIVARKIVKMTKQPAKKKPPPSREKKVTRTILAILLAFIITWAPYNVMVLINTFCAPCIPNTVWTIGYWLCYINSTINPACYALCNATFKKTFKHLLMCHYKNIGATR
In short: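 Response expressed as percent activity versus the Carbachol EC100, with curves fitted by four-parameter non-linear regression of triplicates. Stable M2_CHO cells were Ca++ dye-loaded and preincubated 60 min at room temperature in assay buffer containing 20 μM ATP; signal imaged for 3 minutes after compound.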

[3] = target: T3, human cloned CHRM3 receptor (M3_CHO cells) (Homo sapiens, UniProt P20309); experiment: CHRM3 Ca++ Flux Assay (agonist mode, FDSS 7000EX); settings: for Emax: Percent Activity measured to EC100 of Carbachol, read-out: M3 FDSS PA; for EC50: agonist mode, geometric mean if tested more than once, read-out: M3 FDSS EC50
T3 construct: expressed in transfected cells; host or cells: CHO-K1
T3 sequence (P20309 whole entry): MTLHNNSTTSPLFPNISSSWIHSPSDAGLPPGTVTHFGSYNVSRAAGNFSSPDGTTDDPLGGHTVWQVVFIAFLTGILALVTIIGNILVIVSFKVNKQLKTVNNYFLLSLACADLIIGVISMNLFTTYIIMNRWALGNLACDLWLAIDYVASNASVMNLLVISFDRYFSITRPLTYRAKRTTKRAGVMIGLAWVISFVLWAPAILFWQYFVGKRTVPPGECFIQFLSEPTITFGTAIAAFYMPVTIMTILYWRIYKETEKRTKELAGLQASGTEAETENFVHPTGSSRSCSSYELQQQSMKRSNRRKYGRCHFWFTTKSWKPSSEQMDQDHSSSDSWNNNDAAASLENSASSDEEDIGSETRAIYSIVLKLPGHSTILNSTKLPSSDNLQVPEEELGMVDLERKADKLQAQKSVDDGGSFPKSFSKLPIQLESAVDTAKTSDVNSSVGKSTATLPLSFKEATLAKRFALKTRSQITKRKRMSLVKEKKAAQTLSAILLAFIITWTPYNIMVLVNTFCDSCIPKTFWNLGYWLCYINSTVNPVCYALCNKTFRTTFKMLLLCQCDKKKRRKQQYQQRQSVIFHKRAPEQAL
In short: as §1

SMILES	Emax [1] [%]	EC50 [1] [µM]	Emax [2] [%]	Emax [3] [%]	EC50 [3] [µM]
COc1ccccc1C1CCN([C@@H]2CCC3(C2)CN(c2ncnc(C)n2)C3)CC1 [Example 5M, (R)-6-(4-(2-methoxyphenyl)piperidin-1-yl)-2-(4-methyl-1,3,5-triazin-2-yl)-2-azaspiro[3.4]octane]	0	> 25	0	0	> 25
COc1ccccc1C1CCN([C@@H]2CCC3(C2)CN(c2cccnn2)C3)CC1 [Example 5O, (R)-6-(4-(2-methoxyphenyl)piperidin-1-yl)-2-(pyridazin-3-yl)-2-azaspiro[3.4]octane]	0	> 25	0	0	> 25
c1ccc(C2CCN([C@@H]3CCC4(C3)CN(c3ncncn3)C4)CC2)c(OCC2CCOCC2)c1 [Example 5Q, (R)-6-(4-(2-((tetrahydro-2H-pyran-4-yl)methoxy)phenyl)piperidin-1-yl)-2-(1,3,5-triazin-2-yl)-2-azaspiro[3.4]octane]	0	> 25	0	0	> 25
COc1ccccc1C1CCN([C@@H]2CCC3(C2)CN(c2cc(Cl)nnc2Cl)C3)CC1 [Example 5R, (R)-2-(3,6-dichloropyridazin-4-yl)-6-(4-(2-methoxyphenyl)piperidin-1-yl)-2-azaspiro[3.4]octane]	1	> 25	0	0	> 25
COc1ccccc1C1CCN([C@@H]2CCC3(C2)CN(c2ccnnc2)C3)CC1 [Example 5S, (R)-6-(4-(2-methoxyphenyl)piperidin-1-yl)-2-(pyridazin-4-yl)-2-azaspiro[3.4]octane]	0	> 25	0	0	> 25

The next molecules have a lower EC50 [1] than those just listed; values first:

Emax [1] [%]	EC50 [1] [µM]	Emax [2] [%]	Emax [3] [%]	EC50 [3] [µM]	SMILES
8	22.9	35	9	11.3	COc1ccccc1C1CCN([C@@H]2CCC3(C2)CN(c2ccc(Cl)nn2)C3)CC1 [Example 5N, (R)-2-(6-chloropyridazin-3-yl)-6-(4-(2-methoxyphenyl)piperidin-1-yl)-2-azaspiro[3.4]octane]
8	13.4	16	0	> 25	COc1ccc(Cl)cc1C1CCN([C@@H]2CCC3(C2)CN(c2ccnnc2)C3)CC1 [Example 5P, (R)-6-(4-(5-chloro-2-methoxyphenyl)piperidin-1-yl)-2-(pyridazin-4-yl)-2-azaspiro[3.4]octane]

From patent publication US12122761B2, “2-azaspiro[3.4]octane derivatives as M4 agonists” (NOVARTIS AG, priority 2019, dated 2024)
